Reference: patent US20220339271A1, “MR1 RESTRICTED T CELL RECEPTORS FOR CANCER IMMUNOTHERAPY” (Universität Basel, priority 2018, published 2022)

Key:
Format in all cases: cell-based, human
control MAIT cells = experiment: E. coli stimulation of control MAIT cells in the presence of 6-FP or Ac-6-FP; conditions: for E. coli stimulation of control MAIT cells in the presence of the ligand: A375-MR1 target cells; for inhibition of activation of MAIT cells: target A375 cells expressing mutant MR1 (A375-MR1 K34A)
Protocol: (§1) T cell activation assays. MR1-restricted T cells (5×10^4/well unless otherwise indicated) were co-cultured with indicated target cells (5×10^4/well) in 200 μl total volume in duplicates or triplicates. T cells were cultured with indicated APCs for 24 h. […] E. coli lysate was prepared from the DH5α strain (Invitrogen) grown in LB medium and collected during exponential growth. Bacterial cells were washed twice in PBS and then lysed by sonication. After centrifugation (15,000 g for 15 min), the supernatant was collected, dried, and stored at −70° C. APCs were pulsed for 4 h with E. coli lysate equivalent to 10^8 CFU/ml (unless otherwise indicated) before addition of T cells. In some experiments, APCs were pre-incubated with 6-FP or Ac-6-FP (Schircks Laboratories) for 4 h before co-culture with T cells. In control experiments with TCR γδ cells expressing TCR Vγ9 and Vδ2 chains, the APCs were first treated for 6 h with zoledronate (10 μg/ml) prior to T cell addition. Activation experiments with plate-bound recombinant human β2m-MR1-Fc were performed by coating β2m-MR1-Fc onto 96 well plates (4 μg/ml) and loading with cartridge-purified cell lysates for 4 h at 37° C. before washing twice and adding T cells. Supernatants were collected after 24 h and IFN-γ or GM-CSF were assessed by ELISA. Multiple cytokines and chemokines in cell culture supernatants were analyzed using the Milliplex MAP human cytokine/chemokine magnetic bead panel—Premixed 41 plex (HCYTMAG-60K-PX41; Merck Millipore) according to the manufacturer's instructions. Samples were acquired on a Flexmap 3D system (Merck Millipore) and Milliplex analyst software was used to determine mean fluorescence intensity and analyte concentration.

MR1T cell clones = experiment: MR1T cell clone stimulation by A375-MR1 cells in the presence of 6-FP or Ac-6-FP; conditions: for MR1T cell stimulation in the presence of the ligand: A375-MR1 target cells; for inhibition of activation of MR1T cells: target A375 cells expressing mutant MR1 (A375-MR1 K34A)
Protocol: as §1

TCR Vγ9Vδ2 clone G2B9 = experiment: Control TCR γδ cell response to zoledronate-treated APCs in the presence of 6-FP or Ac-6-FP
Protocol: as §1, with “In control experiments with TCR γδ cells expressing TCR Vγ9 and Vδ2 chains, the APCs were first treated for 6 h with zoledronate (10 μg/ml) prior to T cell addition. Activation experiments with plate-bound recombinant human β2m-MR1-Fc were performed by coating β2m-MR1-Fc onto 96 well plates (4 μg/ml) and loading with cartridge-purified cell lysates for 4 h at 37° C. before washing twice and adding T cells.” left out

MAIT cell clone SMC3 = experiment: Stimulation of control MAIT cell clone by RL-6,7-diMe-loaded THP-1 cells
Protocol: T cell activation assays. MR1-restricted T cells (5×10^4/well unless otherwise indicated) were co-cultured with indicated target cells (5×10^4/well) in 200 μl total volume in duplicates or triplicates. T cells were cultured with indicated APCs for 24 h. In some experiments, anti-MR1 mAbs (clone 26.5) or mouse IgG2a isotype control mAbs (both at 30 μg/ml) were added and incubated for 30 min prior to the addition of T cells. E. coli lysate was prepared from the DH5α strain (Invitrogen) grown in LB medium and collected during exponential growth. Bacterial cells were washed twice in PBS and then lysed by sonication. After centrifugation (15,000 g for 15 min), the supernatant was collected, dried, and stored at −70° C. APCs were pulsed for 4 h with E. coli lysate equivalent to 10^8 CFU/ml (unless otherwise indicated) before addition of T cells. […] Supernatants were collected after 24 h and IFN-γ or GM-CSF were assessed by ELISA. Multiple cytokines and chemokines in cell culture supernatants were analyzed using the Milliplex MAP human cytokine/chemokine magnetic bead panel—Premixed 41 plex (HCYTMAG-60K-PX41; Merck Millipore) according to the manufacturer's instructions. Samples were acquired on a Flexmap 3D system (Merck Millipore) and Milliplex analyst software was used to determine mean fluorescence intensity and analyte concentration.

Compound | E. coli stimulation of control MAIT cells in the presence of the ligand (control MAIT cells) | inhibition of activation of MAIT cells (control MAIT cells) | MR1T cell stimulation in the presence of the ligand (MR1T cell clones) | inhibition of activation of MR1T cells (MR1T cell clones) | control TCR γδ cell responses to cognate antigen presented by the same APCs (compound toxicity) (TCR Vγ9Vδ2 clone G2B9) | stimulation of control MAIT cell clone (MAIT cell clone SMC3)
CC(=O)Nc1nc2ncc(C=O)nc2c(=O)[nH]1 [Ac-6-FP, acetyl-6-formyl pterin] | impaired | failed to inhibit | impaired | failed to inhibit | did not disrupt | 
Nc1nc2ncc(C=O)nc2c(=O)[nH]1 [Clone 6-FP, 6-formyl pterin] | impaired | failed to inhibit | impaired | failed to inhibit | did not disrupt | 
Cc1nc2c(=O)[nH]c(=O)nc-2n(C[C@H](O)[C@H](O)[C@H](O)CO)c1C [RL-6,7-diMe, 6,7-dimethyl-8-D-ribityllumazine] |  |  |  |  |  | stimulated in MR1-dependent manner
